# Measured values: ChEMBL document CHEMBL3046091, “Synthesis and antimicrobial activities of 2-azetidinyl-4-quinazolinone derivatives of diclofenac analogue” (2011)
# Key:
# Format in all cases: functional
# Pseudomonas aeruginosa [1] = assay: Antibacterial activity against Pseudomonas aeruginosa ATCC 9027 at 50 ug/ml by cup-plate method; conditions: read-out: IZ
# Pseudomonas aeruginosa [2] = assay: Antibacterial activity against Pseudomonas aeruginosa ATCC 9027 at 50 to 100 ug/ml by cup-plate method
# Pseudomonas aeruginosa [3] = assay: Antibacterial activity against Pseudomonas aeruginosa ATCC 9027 at 100 ug/ml by cup-plate method; conditions: read-out: IZ
# Bacillus subtilis [4] = assay: Antibacterial activity against Bacillus subtilis ATCC 6633 at 50 ug/ml by cup-plate method; conditions: read-out: IZ
# Bacillus subtilis [5] = assay: Antibacterial activity against Bacillus subtilis ATCC 6633 at 50 to 100 ug/ml by cup-plate method
# Bacillus subtilis [6] = assay: Antibacterial activity against Bacillus subtilis ATCC 6633 at 100 ug/ml by cup-plate method; conditions: read-out: IZ
# Staphylococcus aureus [7] = assay: Antibacterial activity against Staphylococcus aureus ATCC 9144 at 50 to 100 ug/ml by cup-plate method
# Staphylococcus aureus [8] = assay: Antibacterial activity against Staphylococcus aureus ATCC 9144 at 50 ug/ml by cup-plate method; conditions: read-out: IZ
# Staphylococcus aureus [9] = assay: Antibacterial activity against Staphylococcus aureus ATCC 9144 at 100 ug/ml by cup-plate method; conditions: read-out: IZ
# Candida albicans [10] = assay: Antifungal activity against Candida albicans ATCC 10231 at 100 ug/ml by cup-plate method; conditions: read-out: IZ
# Candida albicans [11] = assay: Antifungal activity against Candida albicans ATCC 10231 at 50 ug/ml by cup-plate method; conditions: read-out: IZ
# Escherichia coli [12] = assay: Antibacterial activity against Escherichia coli ATCC 25922 at 50 ug/ml by cup-plate method; conditions: read-out: IZ
# Escherichia coli [13] = assay: Antibacterial activity against Escherichia coli ATCC 25922 at 50 to 100 ug/ml by cup-plate method
# Escherichia coli [14] = assay: Antibacterial activity against Escherichia coli ATCC 25922 at 100 ug/ml by cup-plate method; conditions: read-out: IZ
Compound,zone of inhibition at 50 µg/mL (Pseudomonas aeruginosa [1]),Activity (Pseudomonas aeruginosa [2]),zone of inhibition at 100 µg/mL (Pseudomonas aeruginosa [3]),zone of inhibition at 50 µg/mL (Bacillus subtilis [4]),Activity (Bacillus subtilis [5]),zone of inhibition at 100 µg/mL (Bacillus subtilis [6]),Activity (Staphylococcus aureus [7]),zone of inhibition at 50 µg/mL (Staphylococcus aureus [8]),zone of inhibition at 100 µg/mL (Staphylococcus aureus [9]),zone of inhibition at 100 µg/mL (Candida albicans [10]),zone of inhibition at 50 µg/mL (Candida albicans [11]),zone of inhibition at 50 µg/mL (Escherichia coli [12]),Activity (Escherichia coli [13]),zone of inhibition at 100 µg/mL (Escherichia coli [14])
O=c1c2cc(Br)ccc2nc(Cc2ccccc2Nc2c(Cl)cccc2Cl)n1-c1ccc(/N=C/c2ccccc2O)cc1,2 mm,38.83%,4 mm,3 mm,36%,5 mm,42.87%,3 mm,5 mm,1 mm,0 mm,3 mm,36.74%,5 mm
O=c1c2cc(Br)ccc2nc(Cc2ccccc2Nc2c(Cl)cccc2Cl)n1-c1ccc(/N=C/c2cccc([N+](=O)[O-])c2)cc1,1 mm,33.92%,3 mm,2 mm,24.99%,3 mm,29.73%,1 mm,3 mm,2 mm,1 mm,1 mm,28.39%,3 mm
O=c1c2cc(Br)ccc2nc(Cc2ccccc2Nc2c(Cl)cccc2Cl)n1-c1ccc(/N=C/c2ccc(O)cc2)cc1,2 mm,44.55%,5 mm,2 mm,30.5%,4 mm,34.85%,3 mm,4 mm,1 mm,0 mm,2 mm,31.5%,4 mm
O=c1c2cc(Br)ccc2nc(Cc2ccccc2Nc2c(Cl)cccc2Cl)n1-c1ccc(/N=C/c2ccccc2Cl)cc1,3 mm,44.44%,5 mm,3 mm,42.68%,6 mm,50.98%,3 mm,6 mm,2 mm,1 mm,3 mm,37.56%,5 mm
O=c1c2cc(Br)ccc2nc(Cc2ccccc2Nc2c(Cl)cccc2Cl)n1-c1ccc(/N=C/c2ccc(Cl)cc2)cc1,3 mm,46.93%,6 mm,5 mm,59.79%,9 mm,50.88%,4 mm,6 mm,4 mm,2 mm,5 mm,49.68%,7 mm
COc1ccc(/C=N/c2ccc(-n3c(Cc4ccccc4Nc4c(Cl)cccc4Cl)nc4ccc(Br)cc4c3=O)cc2)cc1,3 mm,52.88%,6 mm,5 mm,63.91%,9 mm,53.85%,4 mm,7 mm,3 mm,2 mm,5 mm,64.33%,9 mm
COc1cc(/C=N/c2ccc(-n3c(Cc4ccccc4Nc4c(Cl)cccc4Cl)nc4ccc(Br)cc4c3=O)cc2)cc(OC)c1OC,2 mm,47.09%,5 mm,4 mm,53.33%,8 mm,50.98%,3 mm,6 mm,2 mm,1 mm,4 mm,50%,7 mm
O=c1c2cc(Br)ccc2nc(Cc2ccccc2Nc2c(Cl)cccc2Cl)n1-c1ccc(/N=C/c2ccccc2[N+](=O)[O-])cc1,2 mm,35.33%,4 mm,3 mm,36%,5 mm,28.43%,2 mm,3 mm,2 mm,1 mm,2 mm,32.65%,4 mm
